According to patent US20220409617A1, “Drug Formulations and Methods of Treatment for Metabolic Disorders” (The Regents of the University of California, priority 2019, published 2022):
“Also recorded” adds a separate entry of the source.

Legend:
[1] = test system: mouse embryonic fibroblasts (MEFs); assay: Ceramide-induced (C16:0 CER, C2-ceramide) mitochondrial fragmentation; assay type: cell-based; settings: MEFs; C16:0 CER 100 μM or C2-ceramide 50 μM 3 h; 893 5 μM, mdivi-1 50 μM, M1 5 μM, leflunomide 50 μM, P110 1 μM
Experimental: (§1) 3T3-L1 cells were maintained in DMEM with 10% FBS and 1% penicillin-streptomycin until induced to differentiate. 3T3-L1 pre-adipocytes were differentiated as described in (M. P. Valley, et al., Anal. Biochem. 505: 43-50, 2016, the disclosure of which is incorporated herein by reference) with slight modifications. Briefly, pre-adipocytes were grown to confluence. After 2 d, cells were induced with maintenance media containing 500 μM IBMX (15879, Sigma-Aldrich, St. Louis, Mo.), 1 μM dexamethasone (D4902, Sigma-Aldrich), 5 μg/mL bovine insulin (10516, Sigma-Aldrich), and 5 μM troglitazone (50-115-0786, ApexBio). Media was changed every 2-3 d for 7 d. On day 7 post-induction, media was changed to maintenance media+5 μg/mL bovine insulin. On day 9 post-induction, media was changed to maintenance media. Mature adipocytes were used 12-14 d post-induction for all experiments. LSL-KrasG12D mouse embryonic fibroblasts (MEFs) with and without Cre-mediated deletion of the STOP cassette were obtained from David Tuveson (Cold Spring Harbor Laboratory, Cold Spring Harbor N.Y., USA) in 2000. p53^flox/flox MEFs were derived in house (2015) from C57BL/6 mice using standard techniques and immortalized by transient expression of Cre recombinase and deletion of p53. MEFs were cultured and maintained in DMEM with 10% FBS and 1% penicillin-streptomycin. A549 cells were cultured in DMEM with 10% FBS, 1% penicillin-streptomycin and 1% sodium pyruvate. Stock solution of palmitic acid (ACROS Organics, cat # AC129702500) was prepared at 100 mM in ethanol. Palmitate (250 μM) was conjugated to 1% (w/v) fatty-acid free bovine serum albumin (Sigma, A8806) in DMEM at 37° C. for 20 min. For all immunofluorescence assays, 8,000 MEFs were seeded into 8-chamber slides (Cellvis, cat # C8-1.5H-N) 12-16 h before treatment. Cells were pre-treated with sphingolipid-like compound 893 (5 μM in water), myriocin (10 μM in methanol), fumonisin-B1 (30 μM in DMSO), or celastrol (500 nM in DMSO) for 3 h followed by a 3 h treatment with BSA-conjugated palmitate mixture or BSA alone. Where cells were treated with C2-ceramide (50 μM in DMSO) or C16:0 ceramide (100 μM in ethanol) for 3 h, cells were pre-treated with sphingolipid-like compound 893 for 1-3 h as indicated, mdivi-1 (50 μM in DMSO) for 1 h or 24 h, M1 (5 μM in DMSO) for 24 h, mdivi-1 and M1 together for 24 h, leflunomide (50 μM in methanol) for 1 h or 24 h, or with P110 (1 μM in water) for 1 h or 12 h. LSL or KRAS^G12D MEFs were treated with sphingolipid-like compound 893 (5 μM) for 6 h prior to fixation.
MEFs were washed twice with PBS and fixed with 4% paraformaldehyde for 10 min at RT. Cells were permeabilized with 0.3% Triton X-100 in blocking buffer containing 10% fetal bovine serum for 20 min at 37° C. followed by overnight incubation with mouse anti-citrate synthase (sc-390693, Santa Cruz Biotechnology; dilution, 1:200) or rabbit-anti-DRP1 at 1:100 (#8570, Cell Signaling Technology) at 4° C. Cells were then washed twice with PBS and incubated with AlexaFluor 488 goat anti-mouse (A28175, Invitrogen) or AlexaFluor 594 donkey anti-rabbit (A32754, Invitrogen) secondary antibodies at RT followed by 5 min incubation with 1 μg/ml DAPI and 2 washes in PBS. For NADH autofluorescence studies, mice were gavaged with vehicle or 120 mg/kg sphingolipid-like compound 893 at ZT8.5 (4-10.5 h before sacrifice between ZT12.5 and ZT18). Post sacrifice, livers were excised, washed 3× with PBS, placed in DMEM supplemented with 10% FBS and 1% penicillin-streptomycin, and immediately imaged. NADH/NADPH autofluorescence was detected with 740 nm excitation and 450±50 nm detectors using a Mai Tai two-photon laser. Fluorescence microscopy was performed on a Zeiss LSM 780 confocal using a 63× oil objective with a […] numerical aperture (NA) or using a Nikon TE2000-S inverted epifluorescence microscope with a 100× oil objective (1.3 NA) and a Photometrics CoolSNAP ES2 monochrome CCD camera. […]

A549 lung cancer cells = assay: KRAS-mediated mitochondrial fission in A549 cells; assay type: cell-based, human; settings: A549, oncogenic KRAS; 893 5 μM 1 h, leflunomide 50 μM 24 h
Experimental: as §1, with “Where cells were treated with C2-ceramide (50 μM in DMSO) or C16:0 ceramide (100 μM in ethanol) for 3 h, cells were pre-treated with sphingolipid-like compound 893 for 1-3 h as indicated, mdivi-1 (50 μM in DMSO) for 1 h or 24 h, M1 (5 μM in DMSO) for 24 h, mdivi-1 and M1 together for 24 h, leflunomide (50 μM in methanol) for 1 h or 24 h, or with P110 (1 μM in water) for 1 h or 12 h. LSL or KRAS^G12D MEFs were treated with sphingolipid-like compound 893 (5 μM) for 6 h prior to fixation.” left out
MEFs were washed twice with PBS and fixed with 4% paraformaldehyde for 10 min at RT. […] NADH/NADPH autofluorescence was detected with 740 nm excitation and 450±50 nm detectors using a Mai Tai two-photon laser. Fluorescence microscopy was performed on a Zeiss LSM 780 confocal using a 63× oil objective with a […] numerical aperture (NA) or using a Nikon TE2000-S inverted epifluorescence microscope with a 100× oil objective (1.3 NA) and a Photometrics CoolSNAP ES2 monochrome CCD camera. […]

[2] = test system: C16:0 ceramide generation (CerS6); assay: C16:0 ceramide levels in palmitate-treated MEFs (UPLC-MS/MS); assay type: cell-based, mouse; settings: MEFs; 3 h pre-treatment (893 5 μM, myriocin 10 μM, fumonisin B1 30 μM) then palmitate 250 μM 3 h
Experimental: Plasma pharmacokinetic analysis of sphingolipid-like compound 893 was performed by Pharmaron Corporation (Beijing, China). C16:0 ceramide levels were quantified in cells using the method described in (T. Kasumov, et al., Anal. Biochem. 401: 154-161, 2010, the disclosure of which is incorporated herein by reference) with minor modifications. Cultured cells were washed twice in PBS and scraped into 250 μL of HPLC grade water and flash frozen until time of analysis. On the day of analysis, samples were thawed, and an aliquot used for protein quantification. For C16:0 ceramide levels in mouse liver, 25 mg of tissue was homogenized in 1 ml of ice-cold PBS using a mechanical probe homogenizer (VWR, Radnor, Pa.), protein levels quantified, and 50 μl of the homogenate diluted with 150 μl HPLC-grade water for C16:0 ceramide analysis. Fifty ng of C17:0 ceramide prepared in ethanol (#22532, Cayman Chemical, Ann Arbor, Mich.) was added into 200 μL of the thawed cell suspension or liver homogenate as an internal standard to control for varying extraction efficiency; 750 μL of an ice-cold 1:2 chloroform/methanol mixture was then added. Samples were sonicated for 30 min and phase separation induced by the addition of 250 μL each of chloroform and HPLC-grade water. Samples were centrifuged at 4° C. for 10 min and the lower lipid phase transferred to a clean tube. The remaining protein and aqueous layers were re-extracted with an additional 500 μL of chloroform. Lipid phases were combined and then dried under vacuum. Dried extract was re-constituted in 100% acetonitrile immediately before analysis. Samples were analyzed by ultra-performance liquid chromatography tandem mass spectrometry (UPLC-MS/MS) using a Waters Micromass Quattro Premier XE equipped with a Waters ACQUITY BEH C4 column (Waters Corp.). Samples were resolved starting at 60% mobile phase A (10 mM ammonium acetate and 0.05% formic acid in water) to 98% mobile phase B (60:40 acetonitrile:isopropanol) over 3 min with a linear gradient, held at 98% B for 1 min, then the column was equilibrated with 60% A for 1 min. The mass spectrometer was operated in positive ion mode with the following parameters: cone voltage 20 V, source temperature 125° C., desolvation temperature 400° C. Ion transition channels for MS/MS were 538→264 for C16:0 ceramide and 552→264 for C17:0 ceramide, both with a dwell time of 285 ms. Standard curves prepared from C16:0 ceramide (#860516, Avanti Polar Lipids, Alabaster, Ala.) dissolved in ethanol were used for quantitation and were linear from 4.1 nM-1,000 nM, with an R^2 of 0.98 or greater.
3T3-L1 cells were maintained in DMEM with 10% FBS and 1% penicillin-streptomycin until induced to differentiate. […]

[3] = test system: mouse embryonic fibroblasts (MEFs); assay type: cell-based; settings: 3 h pre-treatment then palmitate 250 μM 3 h, 893 5 μM, myriocin 10 μM, fumonisin B1 30 μM, NAV-2729 12.5 μM, YM201636 800 nM, celastrol 500 nM
Experimental: Mitochondrial morphology was assessed by examining citrate synthesis expression under a high resolution microscopy. Specifically, the aspect ratio, branch length and roundness of mitochondria was assessed (FIG. 1).
LSL-KrasG12D mouse embryonic fibroblasts (MEFs) with and without Cre-mediated deletion of the STOP cassette were obtained from David Tuveson (Cold Spring Harbor Laboratory, Cold Spring Harbor N.Y., USA) in 2000. p53^flox/flox MEFs were derived in house (2015) from C57BL/6 mice using standard techniques and immortalized by transient expression of Cre recombinase and deletion of p53. MEFs were cultured and maintained in DMEM with 10% FBS and 1% penicillin-streptomycin. […] Stock solution of palmitic acid (ACROS Organics, cat # AC129702500) was prepared at 100 mM in ethanol. Palmitate (250 μM) was conjugated to 1% (w/v) fatty-acid free bovine serum albumin (Sigma, A8806) in DMEM at 37° C. for 20 min. For all immunofluorescence assays, 8,000 MEFs were seeded into 8-chamber slides (Cellvis, cat # C8-1.5H-N) 12-16 h before treatment. Cells were pre-treated with sphingolipid-like compound 893 (5 μM in water), myriocin (10 μM in methanol), fumonisin-B1 (30 μM in DMSO), or celastrol (500 nM in DMSO) for 3 h followed by a 3 h treatment with BSA-conjugated palmitate mixture or BSA alone.

| Compound | Protection from ceramide-induced mitochondrial fragmentation [1] | Reversal of mitochondrial fragmentation / tubularity in A549 cells (A549 lung cancer cells) | Palmitate-induced C16:0 ceramide production [2] | Protection from palmitate-induced mitochondrial fragmentation (aspect ratio, branch length, roundness) [3] |
| --- | --- | --- | --- | --- |
| CC(=NNc1c(Cl)cc(Cl)cc1Cl)c1cc(Cl)ccc1O [M1] | neither compound alone or in combination prevented ceramide- or KRAS-induced mitochondrial fragmentation | – | – | – |
| CCCC[C@@H](C)[C@@H](OC(=O)C[C@@H](CC(=O)O)C(=O)O)[C@H](C[C@@H](C)C[C@H](O)CCCC[C@@H](O)C[C@H](O)[C@H](C)N)OC(=O)C[C@@H](CC(=O)O)C(=O)O [fumonisin B1] | – | did not increase mitochondrial tubularity in A549 cells | Blocking ceramide production | prevented palmitate-induced morphological changes |
| COc1cc(-n2c(=S)[nH]c3ccccc3c2=O)c(Cl)cc1Cl [mdivi-1] | failed to prevent C16:0 ceramide-induced mitochondrial fragmentation; also recorded: neither compound alone or in combination prevented ceramide- or KRAS-induced mitochondrial fragmentation | – | – | – |
| CCCCCCC(=O)CCCCCC/C=C/C[C@@H](O)[C@H](O)[C@@](N)(CO)C(=O)O [myriocin] | – | did not increase mitochondrial tubularity in A549 cells | Blocking ceramide production | prevented palmitate-induced morphological changes |
| NAV-2729 | – | – | – | partial protection from palmitate-induced mitochondrial fragmentation |
